No end group written: not given here.
Legend:
human-type OT7T022 = assay: Binding inhibiting activity using human-type OT7T022-expressing CHO cell membrane fraction and 125I-labeled Y-RFRP-3; settings: human-type OT7T022-expressing CHO cell membrane fraction 1 µg; 125I-labeled Y-RFRP-3 100 pM; room temperature 1.5 hours; read-out: IC50 value (binding inhibiting rate)
Procedure: Assessment of binding inhibiting activity of test compound using human-type OT7T022-expressing CHO cell
(1) Preparation of iodine-labeled entity of human-type RFRP-3 (Y-RFRP-3)
A part thereof was 1/100 diluted, radioactivity was measured with a γ-counter, and the remaining authentic product was distributed, which was stored at -30°C.
(2) Assessment of binding inhibiting activity
To a 96-well microplate were added 1 µg of a membrane fraction, a compound and Y-RFRP-3 labeled with ^125I, which had been diluted with a reaction buffer (50 mM Tris-HCl, 5 mM EDTA, 0.1% BSA, 0.5 mM PMSF, 20 µg/ml leupeptin, 0.1 µg/ml pepstatin A, 4 µg/ml E-64, 10 mM MgCl2, pH 7.5), to 100pM to react them at room temperature for 1.5 hours. For measuring non-specific binding, non-labeled Y-RFRP-3 was further added to […]. Then, a membrane fraction was transferred to a unifilter GF/C (Perkin Elmer) by filtering the reaction solution using a cell harvester (Perkin Elmer), and this was washed with a cooled 50 mM Tris buffer (pH 7.5) five times. The filter was dried, Microsinti (Packard) was added to the filter, and radioactivity was measured with Topcount (Packard).
A binding inhibiting rate (IC50 value) of a test compound is shown in [Table 1].

[1] = Blood glucose concentration after intravenous administration of RFRP-1 to rat under no anesthesia; assay type: in vivo, Wistar male rat; settings: 10 nmol/kg, 5 minutes and 15 minutes after administration, compared with physiological saline group (Fig. 1)
Procedure: (§1) A value indicates mean ± […] (mean ± SE) (n = 4). • Fig. 4 indicates a ratio of freezing in cued fear conditioning when RFRP-1 (-◆-) and a physiological saline (-○-) are administered in a ventricle. An ordinate axis indicates freezing (%) of one day and two day after administration, respectively, expressed by mean ± standard error.
Blood glucose concentration increasing activity of RFRP
As RFRP, human RFRP-1 (37 amino acids) consisting of an amino acid sequence of 56th (Ser) to 92nd (Phe) of an amino acid sequence represented by SEQ ID No.: 3. Hereinafter, this peptide is abbreviated as RFRP-1.
In order to study influence of peripheral administration of RFRP-1 on a blood glucose concentration, operation for collecting blood under free moving was performed. A mature Wistar male rat (weight 310 to 350 g at operation) was anesthetized with 50 mg/kg of pentobarbital by intraperitoneal administration. The rat was fixed on an anatomic pad in a supine position, and a left jugular vein was exposed. […]
Overnight after operation, 300 µl of blood was collected using a tuberculin injection syringe having a dose of 1 ml and a 25 gauge injection needle (both Telmo) before administration of RFRP-1. […] A blood glucose concentration was measured using Fuji Drichem 3500 (FUJIFILM).

[2] = Blood glucagon and insulin concentration after intravenous administration of RFRP-1 to rat; assay type: in vivo, Wistar male rat; settings: for blood glucagon concentration: intravenous, compared with physiological saline group (Fig. 2)
Procedure: as §1
Pancreatic glucagon secretion promoting activity of RFRP
In order to study mechanism of blood glucose concentration increasing activity of RFRP-1, influence of RFRP-1 on a blood concentration of glucagon and insulin which are known as a hormone imparting a variation to a blood glucose concentration was studied. A mature Wistar male rat (weight 310 to 350 g at operation) was operated for collecting blood under free moving. Overnight after operation, 300 µl of a blood was collected using a tuberculin injection syringe having a dose of 1 ml and a 25 gauge injection needle (both Telmo) before administration of RFRP-1. In order to prevent blood coagulation, 3 µl of a 300 KIU/ml aprotinin solution containing 3 mg/ml EDTA had been placed into an injection syringe in advance. An Otsuka physiological saline or RFRP-1 dissolved in a physiological saline (80 nmol/mL) was intravenously administered through a tube at 1 mL/Kg. After 1, 3, 5 and 15 minutes from initiation of intravenous administration, each 300 µL of blood was collected from a jugular vein. The collected blood was centrifuged (13,000 rpm, 5 minutes) using a minor amount high speed cooling centrifuge (MR-150, Tommy Seiko), and the supernatant (plasma) was recovered.

[3] = Cued fear conditioning (freezing) after ventricle administration of RFRP-1; assay type: in vivo, Wistar male rat; settings: rat, 3 nmol into a ventricle, on 2 day (48 hours after training); saline group 46.5% (Fig. 4)
Procedure: as §1
Amnesia promoting activity of RFRP
Since an RFRP nerve is projected on amygdaloid complex, in order to study involvement of RFRP in amygdaloid complex-dependent memory•learning ability, influence under cued fear conditioning due to ventricle administration of RFRP-1 was studied. A mature Wistar male rat (weight 280 to 320 g at operation) was anesthetized with 50 mg/kg of pentobarbital by intraperitoneal administration, and a rat was fixed in a brain localization apparatus. A tooth cutting bar was set lower by 3.3 mm from an interoralline. A cranial bone was exposed, and a hole was opened in a bone using a dental drill in order to embed a guide cannulae AG-12 (internal diameter 0.4 mm, external diameter 0.5 mm, Eicom) in a ventricle. In addition, an anchor screw was embedded in four places at a periphery thereof. A stainless guide cannulae AG-12 was inserted so that its tip was positioned at an upper part of a side ventricle. […]

Substance | IC50 (human-type OT7T022) [nM] | blood glucose concentration [1] | blood insulin concentration ([2]; intravenous (Fig. 3)) | blood glucagon concentration ([2]; 5 minutes after administration) | blood glucagon concentration ([2]; two minutes after administration) | rate of freezing [3] [%]
tert-Butyl 7-bromo-4-hydroxy-2-neopentyl-1-oxo-1,2-dihydroisoquinoline-3-carboxylate [Example 10] | < 1000 | – | – | – | – | –
RFRP-1 (MPHSFANLPLRF; not fully specified; ends and bridges not checked; UniProt Q9HCQ7 81-92, looked up) | – | significant (p<0.05, n = 4) activity of increasing a blood glucose concentration | a variation due to administration of RFRP-1 was not recognized | significant (p<0.01) increase was continued | significant (p<0.01) increase in a blood glucagon concentration | 35.5
